In patent EP0938471B1, “THE PREPARATION AND USE OF ORTHO-SULFONAMIDO ARYL HYDROXAMIC ACIDS AS MATRIX METALLOPROTEINASE AND TACE INHIBITORS” (priority 1996, dated 1998):
Read-outs that look alike come from different tables or passages of the source.

Key:
Type in all cases: biochemical
MMP-1 = target: T1, MMP-1 (Homo sapiens, UniProt P03956); experiment: MMP-1 inhibition (thiopeptide or fluorescent peptide substrate assay); details: for IC50: read-out: MMP-1 IC50
T1 sequence (P03956 100-469): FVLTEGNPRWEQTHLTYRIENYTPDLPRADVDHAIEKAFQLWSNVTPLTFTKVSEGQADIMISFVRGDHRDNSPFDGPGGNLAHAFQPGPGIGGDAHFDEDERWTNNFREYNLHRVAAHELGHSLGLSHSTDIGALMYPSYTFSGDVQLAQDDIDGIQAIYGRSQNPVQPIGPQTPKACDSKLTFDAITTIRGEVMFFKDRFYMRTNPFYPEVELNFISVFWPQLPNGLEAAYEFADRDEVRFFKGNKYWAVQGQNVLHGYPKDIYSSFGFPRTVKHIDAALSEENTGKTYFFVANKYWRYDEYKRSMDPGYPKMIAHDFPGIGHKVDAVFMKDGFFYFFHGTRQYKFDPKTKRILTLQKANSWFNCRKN
Experimental: The enzyme activity is measured by the rate of the color increase. The thiopeptide substrate is made up fresh as a 20 mM stock in 100% DMSO and the DTNB is dissolved in 100% DMSO as a 100 mM stock and stored in the dark at room temperature. Both the substrate and DTNB are diluted together to 1 mM with substrate buffer (50 mM HEPES pH 7.5, 5 mM CaCl2) before use. The stock of enzyme is diluted with assay buffer (50 mM HEPES, pH 7.5, 5 mM CaCl2, 0.02% Brij) to the desired final concentration.
Alternatively, a fluorescent peptide substrate is used. In this assay, the peptide substrate contains a fluorescent group and a quenching group. Upon cleavage of the substrate by an MMP, the fluorescence that is generated is quantitated on the fluorescence plate reader. The assay is run in HCBC assay buffer (50mM HEPES, pH 7.0, 5 mM Ca^+2, 0.02% Brij, 0.5% Cysteine), with human recombinant MMP-1, MMP-9, or MMP-13. The substrate is dissolved in methanol and stored frozen in 1 mM aliquots. For the assay, substrate and enzymes are diluted in HCBC buffer to the desired concentrations. Compounds are added to the 96 well plate containing enzyme and the reaction is started by the addition of substrate.
For either the thiopeptide or fluorescent peptide assays, the slope of the line is calculated and represents the reaction rate. The linearity of the reaction rate is confirmed (r^2 >0.85). The mean (x±sem) of the control rate is calculated and compared for statistical significance (p<0.05) with drug-treated rates using Dunnett's multiple comparison test.

MMP-9 = MMP-9 (Homo sapiens, UniProt P14780); experiment: MMP-9 inhibition (thiopeptide or fluorescent peptide substrate assay); details: read-out: MMP-9 IC50
Chain of MMP-9 (P14780 94-707): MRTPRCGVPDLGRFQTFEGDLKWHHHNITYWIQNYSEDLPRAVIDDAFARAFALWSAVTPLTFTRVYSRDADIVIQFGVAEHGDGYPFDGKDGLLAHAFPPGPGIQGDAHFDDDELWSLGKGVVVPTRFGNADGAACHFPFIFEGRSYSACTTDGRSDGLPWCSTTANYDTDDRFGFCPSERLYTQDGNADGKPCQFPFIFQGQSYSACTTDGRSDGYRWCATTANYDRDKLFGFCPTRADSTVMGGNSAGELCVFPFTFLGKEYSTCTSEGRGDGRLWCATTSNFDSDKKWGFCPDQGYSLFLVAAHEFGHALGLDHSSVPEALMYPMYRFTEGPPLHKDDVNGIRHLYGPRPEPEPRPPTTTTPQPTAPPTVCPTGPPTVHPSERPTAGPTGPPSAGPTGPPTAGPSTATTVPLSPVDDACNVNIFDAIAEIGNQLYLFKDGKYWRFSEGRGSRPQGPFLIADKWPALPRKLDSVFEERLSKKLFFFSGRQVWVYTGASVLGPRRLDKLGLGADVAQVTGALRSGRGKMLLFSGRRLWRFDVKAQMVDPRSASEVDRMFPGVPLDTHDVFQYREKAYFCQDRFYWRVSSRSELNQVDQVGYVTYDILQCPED
Experimental: The enzyme activity is measured by the rate of the color increase. The thiopeptide substrate is made up fresh as a 20 mM stock in 100% DMSO and the DTNB is dissolved in 100% DMSO as a 100 mM stock and stored in the dark at room temperature. Both the substrate and DTNB are diluted together to 1 mM with substrate buffer (50 mM HEPES pH 7.5, 5 mM CaCl2) before use. […] Alternatively, a fluorescent peptide substrate is used. In this assay, the peptide substrate contains a fluorescent group and a quenching group. Upon cleavage of the substrate by an MMP, the fluorescence that is generated is quantitated on the fluorescence plate reader. […] The substrate is dissolved in methanol and stored frozen in 1 mM aliquots. For the assay, substrate and enzymes are diluted in HCBC buffer to the desired concentrations. Compounds are added to the 96 well plate containing enzyme and the reaction is started by the addition of substrate. […] For either the thiopeptide or fluorescent peptide assays, the slope of the line is calculated and represents the reaction rate. […] The mean (x±sem) of the control rate is calculated and compared for statistical significance (p<0.05) with drug-treated rates using Dunnett's multiple comparison test.

MMP-13 = MMP-13 (Homo sapiens, UniProt P45452); experiment: MMP-13 inhibition (thiopeptide or fluorescent peptide substrate assay)
TACE = TACE (Homo sapiens, UniProt P78536); experiment: TACE inhibition (fluorescent peptidyl substrate); details: for inhibition at 1 µM: at 1µM concentration
Chain of TACE (P78536 215-824): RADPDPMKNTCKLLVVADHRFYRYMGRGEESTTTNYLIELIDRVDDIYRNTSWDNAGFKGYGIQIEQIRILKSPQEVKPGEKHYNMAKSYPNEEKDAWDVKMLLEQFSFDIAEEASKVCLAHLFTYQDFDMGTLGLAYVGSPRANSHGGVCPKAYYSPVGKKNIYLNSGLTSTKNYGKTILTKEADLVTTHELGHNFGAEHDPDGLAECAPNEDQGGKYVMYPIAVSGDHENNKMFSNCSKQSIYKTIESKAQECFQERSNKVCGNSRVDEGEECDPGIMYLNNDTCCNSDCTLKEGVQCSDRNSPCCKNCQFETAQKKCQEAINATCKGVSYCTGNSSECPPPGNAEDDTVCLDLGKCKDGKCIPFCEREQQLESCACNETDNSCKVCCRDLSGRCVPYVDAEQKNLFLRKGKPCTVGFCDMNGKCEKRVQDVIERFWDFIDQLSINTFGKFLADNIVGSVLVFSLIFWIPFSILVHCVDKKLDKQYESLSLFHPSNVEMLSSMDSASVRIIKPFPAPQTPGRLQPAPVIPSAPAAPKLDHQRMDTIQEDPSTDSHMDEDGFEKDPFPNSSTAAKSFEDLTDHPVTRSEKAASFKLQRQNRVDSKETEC
Experimental: Using 96-well black microtiter plates, each well receives a solution composed of 10 µL TACE (Immunex, final concentration 1µg/mL), 70µL Tris buffer, pH 7.4 containing 10% glycerol (final concentration 10 mM), and 10 µL of test compound solution in DMSO (final concentration 1µM, DMSO concentration <1%) and incubated for 10 minutes at room temperature.
The reaction is read (excitation 340 nm, emission 420 nm) for 10 min. and the increase in fluorescence over time is plotted as a linear line. The slope of the line is calculated and represents the reaction rate.
The linearity of the reaction rate is confirmed (r^2 >0.85). The mean (x±sem) of the control rate is calculated and compared for statistical significance (p<0.05) with drug-treated rates using Dunnett's multiple comparison test.

Row | Compound | IC50 (MMP-1) [nM] | IC50 (MMP-9) [nM] | IC50 (MMP-13; read-out: MMP-13 IC50) [nM] | IC50 (TACE; read-out: TACE IC50) [nM] | IC50 (TACE) [nM] | inhibition at 1 µM (TACE) [%] | inhibition at 1 µM (MMP-1; read-out: MMP-1 % inhibition, footnote: 1µM) [%] | IC50 (MMP-13) [nM]
1 | COc1ccc(S(=O)(=O)N(Cc2ccccc2)c2cc(C)ccc2C(=O)NO)cc1 [Example 26, 2-[Benzyl-(4-methoxy-benzenesulfonyl)-amino]-N-hydroxy-4-methyl-benzamide] | 884 | 346 | 982 | > 1000 |  |  |  | 
2 | COc1ccc(S(=O)(=O)N(Cc2ccccc2)c2cccc(C)c2C(=O)NO)cc1 [Example 27, 2-[Benzyl-(4-methoxy-benzenesulfonyl)-amino]-N-hydroxy-6-methyl-benzamide] | 1570 | 440 | 717 | > 1000 |  |  |  | 
3 | COc1ccc(S(=O)(=O)N(Cc2ccccc2)c2ccc(C)cc2C(=O)NO)cc1 [Example 29, 2-[Benzyl-(4-methoxy-benzenesulfonyl)-amino]-N-hydroxy-5-methyl-benzamide] | 553 | 353 | 728 | 1000 |  |  |  | 
4 | COc1ccc(S(=O)(=O)N(Cc2ccccc2)c2c(OCC(F)(F)F)cccc2C(=O)NO)cc1 [Example 55, 2-[Benzyl-(4-methoxy-benzenesulfonyl)-amino]-N-hydroxy-3-(2,2,2-trifluoroethoxy)-benzamide] | 670 | 29 | 216 | > 1000 |  |  |  | 
5 | COCCOCOc1cccc(C(=O)NO)c1N(Cc1ccccc1)S(=O)(=O)c1ccc(OC)cc1 [Example 56, 2-[Benzyl-(4-methoxy-benzenesulfonyl)-amino]-N-hydroxy-3-(2-methoxy-ethoxymethoxy)-benzamide] | > 1000 | 57 | 138 | > 1000 |  |  |  | 
6 | COc1ccc(S(=O)(=O)N(Cc2ccccc2)c2c(OCc3ccc(C(=O)NO)cc3)cccc2C(=O)NO)cc1 [Example 57, 2-[Benzyl-(4-methoxy-benzenesulfonyl)-amino]-3-[4-(hydroxyaminocarbonyl)-benzyloxy]-N-hydroxy-benzamide] | > 500 | 12 | 33 | 1000 |  |  |  | 
7 | COc1ccc(S(=O)(=O)N(Cc2ccccc2)c2c(OCCCC(=O)NO)cccc2C(=O)NO)cc1 [Example 58, 2-[Benzyl-(4-methoxy-benzenesulfonyl)-amino]-N-hydroxy-3-(3-hydroxycarbamoyl-propoxy)-benzamide] | 244 | 5 | 36 | 682 |  |  |  | 
8 | COc1ccc(S(=O)(=O)N(Cc2ccccc2)c2c(OCCCCC(=O)NO)cccc2C(=O)NO)cc1 [Example 59, 2-[Benzyl-(4-methoxy-benzenesulfonyl)-amino]-N-hydroxy-3-(4-hydroxycarbamoyl-butoxy)-benzamide] | 242 | 8 | 34 | > 1000 |  |  |  | 
9 | COc1ccc(S(=O)(=O)N(Cc2ccccc2)c2c(OC(C)C)cccc2C(=O)NO)cc1 [Example 60, 2-[Benzyl-(4-methoxy-benzenesulfonyl)-amino]-N-hydroxy-3-isopropoxy-benzamide] | 152 | 7 | 15 | 232 |  |  |  | 
10 | COc1ccc(S(=O)(=O)N(Cc2ccccc2)c2c(C)cc(C)cc2C(=O)NO)cc1 [Example 68, 2-[Benzyl-(4-methoxy-benzenesulfonyl)-amino]-N-hydroxy-3,5-dimethyl-benzamide] | 82 | 21 | 15 | 239 |  |  |  | 
11 | Cc1cc(C)c(N(Cc2ccccc2)S(=O)(=O)c2ccc(F)cc2)c(C(=O)NO)c1 [Example 69, 2-[Benzyl-(4-fluoro-benzenesulfonyl)-amino]-N-hydroxy-3,5-dimethyl-benzamide] | 153 | 874 | 1370 | > 1000 |  |  |  | 
12 | CCCCOc1ccc(S(=O)(=O)N(Cc2ccccc2)c2c(C)cc(C)cc2C(=O)NO)cc1 [Example 72, 2-[Benzyl-(4-butoxy-benzenesulfonyl)-amino]-N-hydroxy-3,5-dimethyl-benzamide] | > 1000 | 144 | 137 | 377 |  |  |  | 
13 | Cc1cc(C)c(N(Cc2ccccc2)S(=O)(=O)c2ccc(OCc3ccccc3)cc2)c(C(=O)NO)c1 [Example 74, 2-[Benzyl-(4-benzyloxy-benzenesulfonyl)-amino]-N-hydroxy-3,5-dimethyl-benzamide] | > 1000 | 554 | 959 |  | 429 |  |  | 
14 | C#Cc1cc(C)c(N(Cc2ccccc2)S(=O)(=O)c2ccc(OC)cc2)c(C(=O)NO)c1 [Example 80, 2-[Benzyl-(4-methoxy-benzenesulfonyl)-amino]-5-ethynyl-N-hydroxy-3-methyl-benzamide] | 109 | 21 | 18 | 134 |  |  |  | 
15 | COc1ccc(S(=O)(=O)N(Cc2cccnc2)c2c(C)cc(C)cc2C(=O)NO)cc1 [Example 88, N-Hydroxy-2-[(4-methoxy-benzenesulfonyl)-pyridin-3-ylmethyl-amino]-3,5-dimethyl-benzamide] | 132 | 15 | 11 | 50 |  |  |  | 
16 | COc1ccc(S(=O)(=O)N(Cc2ccccc2)c2cc3ccccc3cc2C(=O)NO)cc1 [Example 94, 3-[Benzyl-(4-methoxy-benzenesulfonyl)-amino]-naphthalene-2-carboxylic acid hydroxyamide] | 1000 | 276 | 209 | > 1000 |  |  |  | 
17 | COc1ccc(S(=O)(=O)N(Cc2cccc(OC)c2)c2c(C)cc(C)cc2C(=O)NO)cc1 [Example 115, N-Hydroxy-2-[(4-methoxy-benzenesulfonyl)-(3-methoxy-benzyl)-amino]-3,5-dimethyl-benzamide] | > 1000 | 11 | 20 | 173 |  |  |  | 
18 | COc1ccc(S(=O)(=O)N(Cc2c(F)c(F)c(OC)c(F)c2F)c2c(C)cc(C)cc2C(=O)NO)cc1 [Example 116, N-Hydroxy-2-[(4-methoxy-benzenesulfonyl)-(2,3,5,6-tetrafluoro-4-methoxy-benzyl)-amino]-3,5-dimethyl-benzamide] | 201 | 13 | 14 | 271 |  |  |  | 
19 | CCN(CC)Cc1cc(C)c(N(Cc2ccccc2)S(=O)(=O)c2ccc(OC)cc2)c(C(=O)NO)c1 [Example 282, 2-[Benzyl-(4-methoxy-benzenesulfonyl)-amino]-5-diethylaminomethyl-N-hydroxy-3-methyl-benzamide] | 1050 |  | 113 |  |  | 44 |  | 
20 | CCOc1ccc(S(=O)(=O)N(Cc2ccccc2)c2c(C)cc(C)cc2C(=O)NO)cc1 [Example 302, 2-[Benzyl-(4-ethoxy-benzenesulfonyl)-amino]-N-hydroxy-3,5-dimethyl-benzamide] | 291 |  | 24 | 173 |  |  |  | 
21 | Cc1cc(C)c(N(Cc2ccccc2)S(=O)(=O)c2ccc(OC(C)C)cc2)c(C(=O)NO)c1 [Example 304, 2-[Benzyl-(4-isopropoxy-benzenesulfonyl)-amino]-N-hydroxy-3,5-dimethyl-benzamide] | 4100 |  | 305 |  |  | 25 |  | 
22 | COc1ccc(S(=O)(=O)N(Cc2ccccc2)c2c(C(=O)NO)cccc2N(C)C)cc1 [Example 390, 2-[Benzyl-(4-methoxy-benzenesulfonyl)-amino]-3-dimethylamino-N-hydroxy-benzamide] |  |  |  |  |  | 39 | 19 | 531
